In patent US12036289B2, “Gadolinium bearing PCTA-based contrast agents” (BRACCO IMAGING S.P.A., priority 2018, dated 2024):
Where two headings read alike, the source gives them in different places. Marks after values point to notes of the source that are not given here. Each block holds one compound with its values, some of them ahead of it.

Key:
[1] = Acid catalyzed dissociation kinetics of Gadopiclenol (isomeric mixture) and of enantiomers pair C coupled with isoserinol in 1.0 M HCl, followed by HPLC; assay type: physicochemical; conditions: 1.0M HCl, 25° C.; fitting of area-time data
Description: The average half-life of the obtained conjugated compounds and of Gadopiclenol (isomeric mixture) were calculated considering the decrease of the HPLC total area over time as described in detail in Example 8. For amide derivatives obtained by reaction of RRR/SSS Gd(PCTA-tris-glutaric acid) with i) R-isoserinol; ii)S-isoserinol; and iii) racemic isoserinol the kX pseudo-first-order rate constants and half-lives (t1/2=ln 2/kX) were also calculated by fitting the area—time data pairs as carried out for RRR/SSS Gd(PCTA-tris-glutaric acid) in Example 7.
The HPLC measurements were performed with Thermo Finnigan LCQ DECA XPPlus system according to the analytical Procedure 2.
HPLC chromatogram of Gadopiclenol collected as isomeric mixture from Example 2 is characterized by the presence of 4 major peaks (identified for convenience as A′, B′, C′ and D′) having the same MS and UV-Vis spectra. However, there is only one signal in the HPLC chromatogram of the complex compounds obtained by coupling the enantiomers pair C with isoserinol, whether it is R, S isoserinol or racemic-isoserinol (FIG. 6). Since, as observed, the chirality of the isoserinol pendant has no influence on the retention time of coupled diastereoisomers, the presence of 4 signals in the HPLC chromatograms of Gadopiclenol (isomeric mixture) could be interpreted by the presence of 4 enantiomer pairs formed with the stereocenters of the of the glutaric acid residue: 1) RRR-SSS (Signal D′), 2) RSR-SRS, 3) RRS-SSR and 4) RSS-SRR.
The progress of the reactions was checked by HPLC over time, plotting the area values of the peaks of the complex as a function of time, as above discussed in Example 7 for Gd(PCTA-tris-glutaric acid) isomers.
As expected, the integral values of A′, B′, C′, and D′ decrease over time, whereas the peak of the free ligand increases. […] The half-life of complexes obtained by coupling the enantiomers pair C with R, S and racemic-isoserinol was also calculated from the half of the area values in the HPLC chromatograms.

[2] = Relaxometric properties: longitudinal relaxivity r1; assay type: physicochemical
Description: The relaxometric properties of the PCTA-based complex compounds according to the invention have been measured at different magnetic field strengths, i.e. 0.47 and 1.41 T, at 37° C. and in different media (water and human plasma) and compared with relaxivity values measured, at the same conditions, for Gd-Complex having an analogous coordination cage.
The longitudinal water proton relaxation rate (R1=1/T1) was measured at 0.47 T with a Minispec MQ-20 spectrometer (Bruker Biospin, Germany) operating at a proton Larmor frequency of 20 MHz; MR experiments at 1.41 T were performed using a Minispec MQ-60 spectrometer (Bruker Biospin, Germany) operating at a proton Larmor frequency of 60 MHz.
All test articles were used as supplied and diluted in the selected medium (water or human plasma) by weighting the required amount of paramagnetic chelated complex to get a 5 or 10 mM starting solution.
Five different concentration samples (0.1, 0.25, 0.5, 0.75 and 1 mM) for each medium have been prepared by further dilution of the starting 5 or 10 mM solution.
Relaxivity measurements were performed at 0.47 T and 1.41 T at a preset temperature sample of 37° C., kept constant by means of a thermostatic bath connected to the sample holder of the spectrometer. The five sample solutions have been preliminary pre-heated at 37° C. in an external thermostatic bath and then left 10 minutes inside the internal bath to assure the stabilization of the temperature. Longitudinal relaxation time T1 was measured by means of a standard inversion recovery sequence, where the inversion time (TI) was varied from 10 ms to at least 5 times T1 in 15 steps. Statistical analysis (mono-exponential fitting for T1 measurement, linear fitting for the evaluation of longitudinal relaxivity) was performed by Mathematica® (Wolfram, USA). Errors on the estimated parameters were evaluated by the fitting procedure.

[3] = 1.0M HCl (pH 0), 25° C.; literature value; cited from earlier work
[4] = 1.0M HCl, 25° C.; literature value; cited from earlier work
[5] = pH 0
Description: In order to investigate the kinetic inertness of the racemic mixture of the Gd(PCTA-tris-glutaric acid) and, particularly, of the four enantiomer pairs thereof separated by HPLC, we investigated their dissociation reactions taking place under acidic conditions. A large excess of H^+ ([HCl]=1.0 M) was in particular exploited in order to guarantee the pseudo-first order kinetic conditions.
A solution of Gd(PCTA-tris-glutaric acid) (isomeric mixture) in 1 M HCl was prepared and was analysed over the time as explained in Example 7.
In particular, the area value for each of the A, B, C, and D peaks was assessed over the time by HPLC.
The decrease of the integral area values of signals of A, B, C, and D was thus assessed and plotted as a function of the time.
kX pseudo-first-order rate constants (where kX is =kA, kB, kC and kD respectively), characterizing the dissociation rate of the different enantiomer pairs of the Gd(PCTA-tris-glutaric acid) complex and half-lives (t1/2=ln2/kX) were then calculated by fitting the area —time data pairs, as explained in details in Example 7. The average half-life value for the isomeric mixture of Gd(PCTA-tris-glutaric acid) was also obtained, by considering the percentage composition of the mixture. […]

[6] = cited from earlier work
[7] = cited from earlier work; remark: listed apart in the source

r1 (mM^−1s^−1) H2O, 0.5T, 37° C. [2]: 12.9 ± 0.2 mM⁻¹ s⁻¹
r1 (mM^−1s^−1) HSA, 1.5T, 37° C. [2]: 13.9 ± 0.2 mM⁻¹ s⁻¹
Compound: O=C(CCC(C(=O)[O-])N1CCN(C(CCC(=O)NCC(O)CO)C(=O)[O-])Cc2cccc(n2)CN(C(CCC(=O)NCC(O)CO)C(=O)[O-])CC1)NCC(O)CO.[Gd+3] (single isomer, unassigned) [Enantiomers pair C + S-isoserinol]
kx (s^−1) pseudo-first-order rate constant of acid catalyzed dissociation [1]: (4.6 ± 0.3) × 10^−6 s^−1

r1 (mM^−1s^−1) H2O, 0.5T, 37° C. [2]: 13.0 ± 0.1 mM⁻¹ s⁻¹
r1 (mM^−1s^−1) HSA, 1.5T, 37° C. [2]: 14.0 ± 0.2 mM⁻¹ s⁻¹
Compound: O=C(CCC(C(=O)[O-])N1CCN(C(CCC(=O)NCC(O)CO)C(=O)[O-])Cc2cccc(n2)CN(C(CCC(=O)NCC(O)CO)C(=O)[O-])CC1)NCC(O)CO.[Gd+3] (single isomer, unassigned) [Enantiomers pair C + racemic-isoserinol]
kx (s^−1) pseudo-first-order rate constant of acid catalyzed dissociation [1]: (4.5 ± 0.4) × 10^−6 s^−1

t1/2 (hour) dissociation half-life (t1/2 = ln2/kx) [5]: 120 ± 3 h
r1 (mM^−1s^−1) H2O, 0.5T, 37° C. [2]: 9.3 ± 0.1 mM⁻¹ s⁻¹
r1 (mM^−1s^−1) H2O, 0.5T, 37° C. ([2]; listed as enantiomers pair C): 9.3 ± 0.1 mM⁻¹ s⁻¹
Compound: RRR/SSS Gd(PCTA-tris-glutaric acid)

The remaining lines, values behind:

Compound: O=C(CCC(C(=O)[O-])N1CCN(C(CCC(=O)NCC(O)CO)C(=O)[O-])Cc2cccc(n2)CN(C(CCC(=O)NCC(O)CO)C(=O)[O-])CC1)NCC(O)CO.[Gd+3] (single isomer, unassigned) [Enantiomers pair C + R-isoserinol]
kx (s^−1) pseudo-first-order rate constant of acid catalyzed dissociation [1]: (4.9 ± 0.4) × 10^−6 s^−1
r1 (mM^−1s^−1) H2O, 0.5T, 37° C. [2]: 12.9 ± 0.1 mM⁻¹ s⁻¹
r1 (mM^−1s^−1) HSA, 1.5T, 37° C. [2]: 14.0 ± 0.3 mM⁻¹ s⁻¹

Compound: O=C([O-])CN1CCN(CC(=O)[O-])CCN(CC(=O)O)CCN(CC(=O)[O-])CC1.[Gd+3] [Dotarem, Gd-DOTA]
k1 (s^−1) rate constant of acid catalyzed dissociation [3]: 8e-06 s⁻¹
kx (s^−1) rate constant of acid catalyzed dissociation [4]: 8e-06 s⁻¹

Compound: O=C([O-])CN1CCN(CC(=O)[O-])Cc2cccc(n2)CN(CC(=O)[O-])CC1.[Eu+3] [Eu(PCTA), europium complex of the 3,6,9,15-tetraazabicyclo[9.3.1]pentadeca-1(15),11,13-triene-3,6,9,-triacetic acid]
k1 (s^−1) rate constant of acid catalyzed dissociation [3]: 0.000508 s⁻¹
kx (s^−1) rate constant of acid catalyzed dissociation [4]: 0.000508 s⁻¹

Compound: gadolinium chelate of 2,2′,2″-(3,6,9-triaza-1(2,6)-pyridinacyclodecaphane-3,6,9-triyl)tris(5-((2,3-dihydroxypropyl)amino)-5-oxopentanoic acid) [Gadopiclenol (isomeric mixture)]
stability (log K^term) ([6]; Investigative Radiology 2019, Vol 54, (8), 475-484): 18.7
thermodynamic equilibrium constant (log K^term) ([6]; reported in EP 2988756): 14.9
r1 (mM^−1s^−1) H2O, 0.5T, 37° C. ([7]; H2O, 0.5T, 37° C., value reported in EP 1931673): 11* mM^−1s^−1
r1 (mM^−1s^−1) HSA, 1.5T, 37° C. ([7]; HSA, 1.5T, 37° C., value reported in Invest. Radiol. 2015, 50, 835-842): 12.8 ± 1.3** mM^−1s^−1
relaxivity ([7]; in human serum (37° C., 1.41 T), Investigative Radiology 2019, Vol 54, (8), 475-484): 12.8 mM⁻¹ s⁻¹
relaxivity ([7]; in water, at 0.5 T, 37° C., reported in EP1931673): 11 mM^−1s^−1Gd^−1
